Assay [1] concerns the target T1, Sphingolipid delta(4)-desaturase DES1 (Rattus norvegicus, UniProt Q5XIF5).
T1 sequence (Q5XIF5 whole entry): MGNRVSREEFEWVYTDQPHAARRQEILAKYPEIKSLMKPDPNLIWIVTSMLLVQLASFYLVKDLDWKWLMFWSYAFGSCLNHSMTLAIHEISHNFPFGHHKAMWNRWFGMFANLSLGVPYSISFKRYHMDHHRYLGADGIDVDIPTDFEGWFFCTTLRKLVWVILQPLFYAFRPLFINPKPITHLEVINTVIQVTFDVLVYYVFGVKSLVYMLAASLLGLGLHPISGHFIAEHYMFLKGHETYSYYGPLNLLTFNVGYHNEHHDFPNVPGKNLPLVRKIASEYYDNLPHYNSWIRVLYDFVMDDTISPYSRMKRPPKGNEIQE
Description: Inhibition of rat liver microsome DES1 incubated for 20 min in presence of NADH by liquid scintillation counter method. Type of assay: microsomes. (In general: Liver microsomes are a subcellular fraction often used to study metabolism.)

A short description of assay [2]: Inhibition of CerS human HCT-116 cells microsomal fraction assessed as reduction in C24 dihydroceramide synthesis by LC-MS/MS analysis. The class given is microsomes, Microsome.
The target in assay [3] is T2, Sphingomyelin phosphodiesterase 2 (Rattus norvegicus) (UniProt Q9ET64).
T2 sequence (whole entry): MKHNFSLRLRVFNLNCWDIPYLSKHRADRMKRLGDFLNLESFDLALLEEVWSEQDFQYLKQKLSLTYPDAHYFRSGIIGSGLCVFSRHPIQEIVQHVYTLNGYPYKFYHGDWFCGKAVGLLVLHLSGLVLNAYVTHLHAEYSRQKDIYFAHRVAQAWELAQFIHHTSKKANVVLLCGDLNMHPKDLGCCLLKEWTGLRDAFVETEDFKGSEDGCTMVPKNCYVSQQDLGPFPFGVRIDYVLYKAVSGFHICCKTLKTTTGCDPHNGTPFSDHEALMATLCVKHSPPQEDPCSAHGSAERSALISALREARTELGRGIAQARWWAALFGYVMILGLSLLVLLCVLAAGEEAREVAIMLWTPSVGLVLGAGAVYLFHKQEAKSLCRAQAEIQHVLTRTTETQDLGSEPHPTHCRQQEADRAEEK
The experiment in a line: Inhibition of rat brain microsomes nSMase at 350 uM measured after 15 mins relative to control. The conditions noted are these: Microsome.

The nature of assay [4]: Inhibition of bovine brain microsomes nSMase. Set-up: species or system Bos taurus, Microsome.
Assay [5] in a line: Inhibition of CerS human HCT-116 cells microsomal fraction assessed as reduction in C16 dihydroceramide synthesis by LC-MS/MS analysis. The class given is microsomes, Microsome.
Assay [6] can be described thus: Inhibition of CerS human HCT-116 cells microsomal fraction assessed as reduction in C18 dihydroceramide synthesis by LC-MS/MS analysis. The class given is microsomes, Microsome.
Assay [7] is described as follows: Inhibition of CerS human HCT-116 cells microsomal fraction assessed as reduction in C24:1 dihydroceramide synthesis by LC-MS/MS analysis. Type of assay: microsomes, Microsome.
Assay [8] has as its target T3, Sphingomyelin phosphodiesterase 2 (Rattus norvegicus, UniProt Q9ET64).
T3 sequence (Q9ET64 whole entry): T2 sequence (whole entry)
Description: Inhibition of rat brain microsomes nSMase. Set-up: species or system Microsome.

Assay [9] deals with T2, Sphingomyelin phosphodiesterase 2 (Rattus norvegicus). The experiment in a line: Inhibition of rat brain microsomes nSMase at 100 uM relative to control. The note with it: Microsome.
Assay [10] shares this target. The experiment in a line: Inhibition of rat brain microsomes nSMase at 100 uM incubated for 60 mins relative to control. The note with it: Microsome.
The nature of assay [11]: Inhibition of rat brain aSMase. The class given is tissue-based.
For assay [12], the target named is T4, Sphingomyelin phosphodiesterase 2 (Mus musculus, UniProt O70572).
T4 sequence (O70572 whole entry): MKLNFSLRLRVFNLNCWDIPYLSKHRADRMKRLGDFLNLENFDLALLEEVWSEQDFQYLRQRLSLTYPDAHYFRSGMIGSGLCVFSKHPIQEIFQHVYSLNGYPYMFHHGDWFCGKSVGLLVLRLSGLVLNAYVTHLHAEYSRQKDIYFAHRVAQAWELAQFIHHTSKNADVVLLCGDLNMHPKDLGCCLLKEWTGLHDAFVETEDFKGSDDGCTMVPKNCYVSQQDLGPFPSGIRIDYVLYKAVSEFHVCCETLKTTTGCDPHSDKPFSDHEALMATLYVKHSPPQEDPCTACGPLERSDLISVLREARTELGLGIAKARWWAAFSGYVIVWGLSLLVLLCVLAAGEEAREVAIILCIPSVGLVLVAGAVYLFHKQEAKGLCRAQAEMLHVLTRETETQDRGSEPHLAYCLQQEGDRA
Description: Inhibition of mouse nSMase.

Assay [13] can be described thus: Inhibition of rat brain aSMase using HMU-PC as substrate incubated for 3 hrs by fluorescence based analysis. Type of assay: tissue-based.
A short description of assay [14]: Inhibition of bovine brain microsomes nSMase assessed as inhibition constant. On the set-up: species or system Bos taurus, Microsome.
A further assay is filed under the species Bos taurus. The experiment in a line: Inhibition of bovine brain microsomes nSMase measured after 60 mins relative to control. The note with it: Microsome.
A further assay concerns the target T5, Sphingomyelinase C (Bacillus cereus, UniProt P11889).
T5 sequence (P11889 whole entry): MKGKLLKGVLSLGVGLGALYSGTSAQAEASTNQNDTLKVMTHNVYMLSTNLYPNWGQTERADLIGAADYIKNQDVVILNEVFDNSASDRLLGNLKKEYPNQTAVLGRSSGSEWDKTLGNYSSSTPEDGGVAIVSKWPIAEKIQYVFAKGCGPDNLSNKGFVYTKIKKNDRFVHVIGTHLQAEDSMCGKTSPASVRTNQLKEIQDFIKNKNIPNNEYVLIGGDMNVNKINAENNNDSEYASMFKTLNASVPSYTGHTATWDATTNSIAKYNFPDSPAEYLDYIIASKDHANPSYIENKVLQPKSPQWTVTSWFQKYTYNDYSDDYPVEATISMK
Description: Inhibition of Bacillus cereus SMaseC.

Assay [15] addresses T2, Sphingomyelin phosphodiesterase 2 (Rattus norvegicus). The experiment in a line: Inhibition of rat brain microsomes nSMase at 200 uM measured after 90 mins relative to control. The note with it: Microsome.
Assay [16] can be described thus: Inhibition of rat brain aSMase using HMU-PC as substrate incubated for 3 hrs by fluorescence plate reader assay. The class given is tissue-based.

The term IC50 denotes the concentration that gives 50% inhibition. As to `CC1=C(/C=C/C(C)=C/C=C/C(C)=C/C(=O)Nc2ccc(O)cc2)C(C)(C)CCC1=O`, the concentration for half-maximal inhibition (IC50) in assay [1] is 1680 nM.

As to `CCCCCCCCCCCCCCCCC(=O)NC(CO)(CO)CCc1ccc(OCCCCCCC)cc1`, in assay [2], the IC50 came to 63.6 µM.

Usually inhibition stands for how much of the control response was suppressed. A lower inhibition goes with little suppression. `C/C=C/C=C/C(=O)N[C@@H](CO)[C@H]1CC(CCCCCC)C(=O)O1` (stereo partly drawn) had an inhibition in assay [3] of 90%.

Compound `CCCCCCCCCCCCCCCC(=O)N[C@@H](CC(F)(F)P(=O)(O)O)[C@H](O)c1ccccc1` came in with a half-inhibitory concentration (IC50) in assay [4] of 181 µM.

For `CCCCCCCOc1ccc(CCC(CO)(CO)NC(=O)CCCc2ccccc2)cc1`, the IC50 in [5] turned out to be 50.4 µM; in [6] it was 26.9 µM; in [2], 81.3 µM; in assay [7] it was 61.3 µM.

`CC(C)(O)/C=C/C1=CC(=O)C=CC1=O`: the IC50 in [8] worked out at 4.2 µM.

Take `CC(C)C/C=C/C=C/C(=O)NC1=CC(=O)[C@H]2O[C@H]2C1=O`: the inhibition is 90% in assay [9] and 98% in [10].

Turning to `Cc1csc(-c2c(C(F)(F)F)oc3cc(O)c(C)cc3c2=O)n1`, the concentration for half-maximal inhibition (IC50) in assay [11] came out at 9.5 µM.

In the case of `COc1ccc2oc(-c3cc(Br)cc4c3OCOC4)c(N)c(=O)c2c1`, the concentration for half-maximal inhibition (IC50) in [11] was determined as 3.1 µM.

With `CC(C)(O)C(O)Cc1cc(O)ccc1O` (stereo not drawn), the IC50 in assay [8] came to 34 µM.

In assay [12], `S=c1[nH]nc(Nc2ccc(Cl)cc2)n1-c1ccc(Cl)cc1` displayed a half-maximal inhibitory concentration (IC50) of 2400 nM.

Consider `COS(=O)(=O)O[C@@H]1[C@H](O)[C@H](OP(=O)(O)O)[C@@H](O)[C@H](OP(=O)(O)O)[C@H]1O`, for which the IC50 in assay [13] is > 100 µM.

A word on the Ki: it is a measure of affinity in units of concentration, obtained from inhibition or displacement. Regarding `CCCCCCCCCCCCNC(=S)N[C@H](CO)[C@H](O)c1ccc([N+](=O)[O-])cc1`, in [14], the inhibition constant Ki amounted to 1700 nM.

For the compound `CCOc1ccc(OCC)c(NC(=O)C2=C(C)NC(=S)NC2c2ccc(N(CC)CC)cc2)c1` (stereo not drawn), the IC50 in assay [12] amounted to 860 nM.

For the compound `CCCCCCCCCCCCCCNC(=S)N[C@H](CO)[C@H](O)c1ccc([N+](=O)[O-])cc1`, the Ki in [14] turned out to be 2500 nM. This compound registered an inhibition in the assay filed under Bos taurus of 90%.

`CCCCCCCCC/C=N/NC(=N)N`: in assay [8], the IC50 stood at 8.2 µM.

On Sphingomyelinase C, `CCCCCCC[C@@H](O)[C@H](CNP(=O)([O-])OCC[N+](C)(C)C)NC(=O)CCCCC` returned an IC50 of 53 µM.

In the case of `CCCCCCCCCC(=O)N[C@H](Cc1ccccc1)C(=O)NC1=CC2(CO2)C(=O)C=C1` (stereo partly drawn), in assay [15], the inhibition amounted to 23%.

In the case of `CCCCCCCCCCCC(=O)NC1=CC(=O)[C@H]2O[C@H]2C1=O`, the inhibition in assay [9] was 10%; in [10], 88%.

In [16], `CCCCCCCCCCCC(O)(P(=O)(O)O)P(=O)(O)O` returned an IC50 of 70 nM.

Regarding `CCCCCCCC(N)(P(=O)(O)O)P(=O)(O)O`, in assay [16], the midpoint of inhibition, the IC50, lay at 40 nM.

In assay [8], `COC(C)(C)/C=C/c1cc(O)ccc1O` yielded an IC50 of 16 µM.

Values taken from ChEMBL document CHEMBL5226284, “Small Molecule Inhibitors Targeting Biosynthesis of Ceramide, the Central Hub of the Sphingolipid Network” (J Med Chem, 2021).
